In patent publication US20230123334A1, “AMINO LIPID COMPOUND, PREPARATION METHOD THEREFOR, AND APPLICATION THEREOF” (SHENZHEN SHENXIN BIOTECHNOLOGY CO., LTD., priority 2020, published 2023):

System: HEK293 cells
Assay: Preliminary screening as DNA vectors, GFP transfection of HEK293 cells
Type: cell-based
Details: amino lipid/DOPE liposome with 75 ng plasmid DNA (psin-EGFP-IRES-Puro); number of GFP-expressing cells divided by total nuclei (Hoechst)
How it was run: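 HEK293 cells in DMEM/10% FBS transfected with 75 ng EGFP plasmid per well complexed with amino lipid/DOPE liposomes in pH 5.6 sodium acetate. Hoechst nuclear stain added 20-24 h post-transfection, then cells cultured another 20-24 h. Confocal imaging gives GFP-positive cells as % of total nuclei.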

| Structure (SMILES) | Absolute DNA transfection efficiency in HEK293 cells [%] |
| --- | --- |
| CCCCCCCSc1nc(NCCCCCC)nc(NCCN2CCN(C)CC2)n1 [S7N6 D5] | 28.5 |
| CCCCCCCSc1nc(NCCCN(C)C)nc(SCCCCCC)n1 [S6S7 D6] | 6.9 |
| CCCCCCCCCCCCCCCSc1nc(NCCCCCC)nc(NCCN2CCOCC2)n1 [S15N6 D2] | 34.1 |
| CCCCCCCCCCCCCCSc1nc(NCCCCCCCCC)nc(NCCCN2CCOCC2)n1 [S14N9 D8] | 10.7 |
| CCCCCCCCCCCCCCCCNc1nc(NCCCN2CCOCC2)nc(SCCCCCCCCCCCC)n1 [S12N16 D8] | 0.0 |
| CCCCCCCCCCCCCCSc1nc(NCCCCCCCCCCC)nc(NCCN(C)C)n1 [S14N11 D1] | 11.8 |
| CCCCCCCCCCCCNc1nc(NCCN2CCCC2)nc(SCCCCCCCC)n1 [S8N12 D3] | 17.8 |
| CCCCCCCCCCCCCCCCCCNc1nc(NCC2CCN(C)CC2)nc(SCCCCCCCCCCCCCCCC)n1 [S16N18 D10] | 1.2 |
| CCCCCCCCCCCCCCCCCCSc1nc(NCCCCCCCCC)nc(NCCCN2CCOCC2)n1 [S18N9 D8] | 3.0 |
| CCCCCCCCCCCNc1nc(NCCN(C)C)nc(SCCCCCCCC)n1 [S8N11 D1] | 42.2 |
| CCCCCCCCCCCCNc1nc(NCCCN2CCN(C)CC2)nc(SCCCCCCCCCC)n1 [S10N12 D9] | 3.6 |
| CCCCCCCCCCCCCCCSc1nc(NCCCCCC)nc(NCCN2CCN(C)CC2)n1 [S15N6 D5] | 14.9 |
| CCCCCCCCCCCCCCCCCCSc1nc(NCCN2CCCC2)nc(SCCCCCCC)n1 [S7S18 D3] | 11.2 |
| CCCCCCCCCCCCN(CCCCCCCCCCCC)c1nc(NCCN2CCN(C)CC2)nc(SCCCCCC)n1 [S6^2N12 D5] | 0.0 |
| CCCCCCCCCCCCCCCCCCSc1nc(NCCCCCCCCCCCC)nc(NCCN2CCCC2)n1 [S18N12 D3] | 1.8 |
| CCCCCCCCSc1nc(NCCN2CCN(C)CC2)nc(SCCCCCC)n1 [S6S8 D5] | 15.3 |
| CCCCCCCCCCCCCCSc1nc(NCCCCCCCC)nc(NCCN2CCCCC2)n1 [S14N8 D4] | 2.6 |
| CCCCCCCCCCCCCCCSc1nc(NCCCN2CCN(C)CC2)nc(N(CCCCCCCCCCCC)CCCCCCCCCCCC)n1 [S15^2N12 D9] | 0.9 |
| CCCCCCCCCCCCCCCCCCSc1nc(NCCCCCCC)nc(NCCCN(C)C)n1 [S18N7 D6] | 20.7 |
| CCCCCCCCCCCCCCCNc1nc(NCCN2CCCC2)nc(SCCCCCCCCCCCC)n1 [S12N15 D3] | 2.0 |
| CCCCCCCCCCCCCCCCCCSc1nc(NCCCCCCCCC)nc(NCCN(C)C)n1 [S18N9 D1] | 5.3 |
| CCCCCCCCCCCCCCCCCCNc1nc(NCCCN2CCN(C)CC2)nc(SCCCCCCCCCCCCCCCC)n1 [S16N18 D9] | 0.0 |
| CCCCCCCCCCCCCCCCNc1nc(NCCCN2CCOCC2)nc(SCCCCCCCCCC)n1 [S10N16 D8] | 3.0 |
| CCCCCCCCCCCCCCCCSc1nc(NCCCCCCCCCCC)nc(NCCN2CCCC2)n1 [S16N11 D3] | 16.6 |

| Structure (SMILES) | Absolute DNA transfection efficiency in HEK293 cells [%] |
| --- | --- |
| CCCCCCCCCCCNc1nc(NCC2CCN(C)CC2)nc(SCCCCCCCCCCC)n1 [S11N11 D10] | 5.6 |
| CCCCCCCCCCCCCNc1nc(NCCN2CCCCC2)nc(SCCCCCCC)n1 [S7N13 D4] | 6.4 |
| CCCCCCCCCCCCNc1nc(NCCN2CCOCC2)nc(SCCCCCCCC)n1 [S8N12 D2] | 38.1 |
| CCCCCCCCSc1nc(NCCCCCC)nc(NCCN(CC)CC)n1 [S8N6 D7] | 1.8 |
| CCCCCCCCCCCCCCSc1nc(NCCCCCCCCCCCC)nc(NCCN2CCN(C)CC2)n1 [S14N12 D5] | 9.8 |
| CCCCCCCCSc1nc(NCCN2CCOCC2)nc(SCCCCCCCC)n1 [S8S8 D2] | 17.6 |
| CCCCCCCCCCCCSc1nc(NCCCCCCCCC)nc(NCCN2CCOCC2)n1 [S12N9 D2] | 0.0 |
| CCCCCCCCCCCCSc1nc(NCCN2CCN(C)CC2)nc(SCCCCCCCC)n1 [S8S12 D5] | 24.8 |
| CCCCCCCCCCCCCCCCCCNc1nc(NCCCN2CCOCC2)nc(SCCCCCCCCC)n1 [S9N18 D8] | 26.1 |
| CCCCCCCCCCCCCCCCSc1nc(NCCCCCCCCC)nc(NCCCN2CCOCC2)n1 [S16N9 D8] | 6.7 |
| CCCCCCCCCCCSc1nc(NCCN2CCCCC2)nc(SCCCCCC)n1 [S6S11 D4] | 6.2 |
| CCCCCCCCCCCCCCCCCCSc1nc(NCCCCCCC)nc(NCCCN2CCOCC2)n1 [S18N7 D8] | 3.9 |
| CCCCCCCCCCCCCCCCSc1nc(NCCCN2CCOCC2)nc(SCCCCCC)n1 [S6S16 D8] | 0.0 |
| CCCCCCCCCNc1nc(NCCCN2CCOCC2)nc(SCCCCCCCCC)n1 [S9N9 D8] | 14.8 |
| CCCCCCCCCCCCN(CCCCCCCCCCCC)c1nc(NCCN(C)C)nc(SCCCCCCCCCC)n1 [S10^2N12 D1] | 3.2 |
| CCCCCCCCCNc1nc(NCC2CCN(C)CC2)nc(SCCCCCC)n1 [S6N9 D10] | 4.3 |
| CCCCCCCCCCCCCCCNc1nc(NCCN2CCCCC2)nc(SCCCCCCCCCC)n1 [S10N15 D4] | 4.1 |
| CCCCCCCCCCCCCNc1nc(NCCN2CCOCC2)nc(SCCCCCCC)n1 [S7N13 D2] | 22.1 |
| CCCCCCCCCCCCCCCNc1nc(NCCN(CC)CC)nc(SCCCCCCCCCCCCCCC)n1 [S15N15 D7] | 0.4 |
| CCCCCCCCCCCCCCCCCCNc1nc(NCC2CCN(C)CC2)nc(SCCCCCCCCCCCCCC)n1 [S14N18 D10] | 0.1 |
| CCCCCCCCNc1nc(NCCCN2CCN(C)CC2)nc(SCCCCCC)n1 [S6N8 D9] | 1.2 |
| CCCCCCCCCCCCCCSc1nc(NCCCCCCC)nc(NCCCN2CCN(C)CC2)n1 [S14N7 D9] | 16.1 |
| CCCCCCCCCCCCN(CCCCCCCCCCCC)c1nc(NCC2CCN(C)CC2)nc(SCCCCCCCCCC)n1 [S10^2N12 D10] | 3.3 |
| CCCCCCCCCCCNc1nc(NCCN2CCCCC2)nc(SCCCCCCCCCCC)n1 [S11N11 D4] | 1.0 |

| Structure (SMILES) | Absolute DNA transfection efficiency in HEK293 cells [%] |
| --- | --- |
| CCCCCCCSc1nc(NCCCCCC)nc(NCCCN(C)C)n1 [S7N6 D6] | 27.2 |
| CCCCCCCCCCSc1nc(NCCN2CCOCC2)nc(SCCCCCCC)n1 [S7S10 D2] | 23.6 |
| CCCCCCCCCCCCCCCCSc1nc(NCCCCCCC)nc(NCCN(C)C)n1 [S16N7 D1] | 13.0 |
| CCCCCCCCCCCCNc1nc(NCCN2CCN(C)CC2)nc(SCCCCCCCCCCCC)n1 [S12N12 D5] | 3.5 |
| CCCCCCCCSc1nc(NCCCN(C)C)nc(SCCCCCCCC)n1 [S8S8 D6] | 5.1 |
| CCCCCCCCCCCSc1nc(NCCCCCCC)nc(NCCN(C)C)n1 [S11N7 D1] | 27.6 |
| CCCCCCCCCNc1nc(NCCN2CCCC2)nc(SCCCCCCCCC)n1 [S9N9 D3] | 54.9 |
| CCCCCCCCCCCCSc1nc(NCCCCCC)nc(NCCN2CCCCC2)n1 [S12N6 D4] | 0.0 |
| CCCCCCCCCCCCCCCCNc1nc(NCCN2CCCC2)nc(SCCCCCCC)n1 [S7N16 D3] | 21.2 |
| CCCCCCCCCCCCCCCNc1nc(NCCN2CCCC2)nc(SCCCCCCCC)n1 [S8N15 D3] | 9.9 |
| CCCCCCCCCCCCNc1nc(NCCN2CCCC2)nc(SCCCCCCCCC)n1 [S9N12 D3] | 47.3 |
| CCCCCCCCCCCCSc1nc(NCCCCCCCCCCC)nc(NCCN(C)C)n1 [S12N11 D1] | 3.2 |
| CCCCCCCCCCSc1nc(NCC2CCN(C)CC2)nc(SCCCCCC)n1 [S6S10 D10] | 14.9 |
| CCCCCCCCCCCCCCCNc1nc(NCCCN2CCN(C)CC2)nc(SCCCCCCCCCCCCCC)n1 [S14N15 D9] | 0.7 |
| CCCCCCCCCCCCCCCCCCSc1nc(NCCCN2CCN(C)CC2)nc(SCCCCCCC)n1 [S7S18 D9] | 13.1 |
| CCCCCCCCCCCCCCCCCCSc1nc(NCCCCCCCCCCCCCCCC)nc(NCCCN2CCN(C)CC2)n1 [S18N16 D9] | 0.0 |
| CCCCCCCCCCCCN(CCCCCCCCCCCC)c1nc(NCCN2CCCCC2)nc(SCCCCCC)n1 [S6^2N12 D4] | 0.1 |
| CCCCCCCCCCCCCCCCSc1nc(NCCCCCCCCCCC)nc(NCCN2CCCCC2)n1 [S16N11 D4] | 5.8 |
| CCCCCCCCCCSc1nc(NCCCN2CCN(C)CC2)nc(SCCCCCCCC)n1 [S8S10 D9] | 25.6 |
| CCCCCCCSc1nc(NCCN2CCOCC2)nc(SCCCCCCC)n1 [S7S7 D2] | 2.2 |
| CCCCCCCCCCCCCCCCNc1nc(NCCCN2CCN(C)CC2)nc(SCCCCCCCCCCCCCCC)n1 [S15N16 D9] | 0.2 |
| CCCCCCCCCCCSc1nc(NCCCCCC)nc(NCCN(C)C)n1 [S11N6 D1] | 33.1 |
| CCCCCCCCCCCCCCSc1nc(NCCN2CCCC2)nc(SCCCCCCC)n1 [S7S14 D3] | 8.4 |
| CCCCCCCCCCCCSc1nc(NCCCCCCC)nc(NCCCN2CCN(C)CC2)n1 [S12N7 D9] | 0.3 |
